Measured values as given in PMC9494668 (ACS Omega, 2022).
In brackets after ≈: the same amount, converted by molar mass. Where two headings read alike, the source gives them in different places.

Legend:
[1] = tested on: Escherichia coli ATCC 25922; assay: Microtitre broth dilution MIC, Escherichia coli; type: cell-based; details: ATCC25922, read-out: MIC, EC
[2] = tested on: Pseudomonas aeruginosa ATCC 27853; assay: Microtitre broth dilution MIC, Pseudomonas aeruginosa; type: cell-based; details: ATCC27853, read-out: MIC, PA
[3] = tested on: Streptococcus faecalis ATCC 29212; assay: Microtitre broth dilution MIC, Streptococcus faecalis; type: cell-based; details: Enterococcus faecalis, ATCC29212, read-out: MIC, SF
[4] = tested on: Salmonella enterica ATCC 10428; assay: Microtitre broth dilution MIC, Salmonella enterica; type: cell-based; details: ATCC10428, read-out: MIC, SE
[5] = tested on: methicillin-susceptible strains of Staphylococcus aureus ATCC 29213; assay: Microtitre broth dilution MIC, MSSA; type: cell-based; details: ATCC29213|MSSA, read-out: MIC, MSSA
[6] = tested on: methicillin-resistant strains of Staphylococcus aureus ATCC 43300; assay: Microtitre broth dilution MIC, MRSA; type: cell-based; details: ATCC43300|MRSA, read-out: MIC, MRSA
[7] = tested on: Candida albicans ATCC 10321; assay: microbe, parasite or virus in culture; type: cell-based
[8] = tested on: Aspergillus niger ATCC 16404; assay: microbe, parasite or virus in culture; type: cell-based
[9] = tested on: bacterial strains (EC, PA, SF, SE, MSSA, MRSA) and fungi (CA, AN); assay: Microtitre broth dilution MIC, stated over several strains; type: cell-based
[10] = tested on: C26 colon carcinoma cell line; assay: MTT cytotoxicity, C26; type: cell-based; details: 48 h, read-out: Anticancer activity IC50, C26
[11] = tested on: HepG2 human hepatocyte carcinoma cell line; assay: MTT cytotoxicity, HepG2; type: cell-based; details: HepG2, 48 h, read-out: Anticancer activity IC50, HepG2
[12] = tested on: MCF7 human breast cancer cell line; assay: MTT cytotoxicity, MCF7; type: cell-based; details: MCF7, 48 h, read-out: Anticancer activity IC50, MCF7
[13] = tested on: H69PR human small cell lung cancer cell line; assay: MTT cytotoxicity, H69PR; type: cell-based; details: 48 h, read-out: Anticancer activity IC50, H69PR
DHFR = biological target: T1, DHFR (Homo sapiens, UniProt P00374); assay: In vitro dihydrofolate reductase inhibition assay; type: biochemical; details: IC50 DHFR inhibitory activity, IC50 ± SEM
T1 sequence (P00374 1-187): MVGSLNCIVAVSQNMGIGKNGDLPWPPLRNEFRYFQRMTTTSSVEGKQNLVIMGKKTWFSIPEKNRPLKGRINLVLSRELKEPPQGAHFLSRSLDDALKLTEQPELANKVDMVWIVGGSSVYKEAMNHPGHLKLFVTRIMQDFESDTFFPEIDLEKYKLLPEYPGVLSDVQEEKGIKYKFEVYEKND

VEGFR-2 = VEGFR-2 (Homo sapiens, UniProt P35968); assay: In vitro VEGFR-2 kinase inhibition assay; type: biochemical; details: for IC50: IC50 VEGFR-2 inhibitory activity, IC50 ± SEM; for inhibitory activity on VEGFR-2 relative to DHFR: times better on the VEGFR-2 receptor than the DHFR receptor
VEGFR-2, sequence (P35968 20-1356): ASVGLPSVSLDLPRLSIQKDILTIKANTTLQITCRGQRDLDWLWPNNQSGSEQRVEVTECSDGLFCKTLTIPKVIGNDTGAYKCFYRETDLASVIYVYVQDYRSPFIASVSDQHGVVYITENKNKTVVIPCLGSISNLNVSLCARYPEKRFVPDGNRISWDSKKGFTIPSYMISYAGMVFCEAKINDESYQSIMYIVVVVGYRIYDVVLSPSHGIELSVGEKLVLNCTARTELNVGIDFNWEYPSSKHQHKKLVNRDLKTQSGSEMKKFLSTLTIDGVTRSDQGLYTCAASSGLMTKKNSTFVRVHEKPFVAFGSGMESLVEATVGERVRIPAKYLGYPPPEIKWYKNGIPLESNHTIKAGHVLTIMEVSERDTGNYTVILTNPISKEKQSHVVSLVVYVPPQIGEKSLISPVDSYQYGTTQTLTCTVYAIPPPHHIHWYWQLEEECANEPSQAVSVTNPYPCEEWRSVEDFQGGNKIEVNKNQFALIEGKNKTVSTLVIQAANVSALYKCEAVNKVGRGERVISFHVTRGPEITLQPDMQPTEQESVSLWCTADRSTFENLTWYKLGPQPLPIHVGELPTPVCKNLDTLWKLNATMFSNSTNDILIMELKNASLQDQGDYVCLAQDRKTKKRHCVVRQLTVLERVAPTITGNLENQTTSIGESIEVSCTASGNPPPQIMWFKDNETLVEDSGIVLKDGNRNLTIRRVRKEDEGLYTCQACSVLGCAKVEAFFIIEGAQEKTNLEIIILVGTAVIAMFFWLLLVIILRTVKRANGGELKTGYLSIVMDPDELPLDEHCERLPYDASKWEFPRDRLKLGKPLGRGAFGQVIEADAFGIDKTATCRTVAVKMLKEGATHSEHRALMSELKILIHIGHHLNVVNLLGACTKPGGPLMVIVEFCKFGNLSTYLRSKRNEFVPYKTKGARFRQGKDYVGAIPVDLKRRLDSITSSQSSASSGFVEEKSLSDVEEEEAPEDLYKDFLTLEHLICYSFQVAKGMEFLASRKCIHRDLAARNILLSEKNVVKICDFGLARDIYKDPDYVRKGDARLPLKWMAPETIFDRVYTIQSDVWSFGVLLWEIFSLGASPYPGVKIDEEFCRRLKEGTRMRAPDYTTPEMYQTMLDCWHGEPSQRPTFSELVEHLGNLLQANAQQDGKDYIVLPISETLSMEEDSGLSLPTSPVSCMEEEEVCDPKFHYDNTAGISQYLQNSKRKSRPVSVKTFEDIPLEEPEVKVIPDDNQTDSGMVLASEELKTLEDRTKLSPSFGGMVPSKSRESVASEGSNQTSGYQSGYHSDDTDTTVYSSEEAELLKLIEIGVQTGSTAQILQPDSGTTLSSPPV

Compound	MIC [1]	MIC [2]	MIC [3]	MIC [4]	MIC [5]	MIC [6]	MIC ([7]; ATCC10321, read-out: MIC, CA)	MIC ([8]; ATCC16404, read-out: MIC, AN)	MIC ([9]; Staphylococcus aureus, MRSA|MSSA, read-out: MIC against SE, SF, MSSA, and MRSA)	IC50 [10]	IC50 [11]	IC50 [12]	IC50 [13]	IC50 (DHFR)	IC50 (VEGFR-2)	inhibitory activity on VEGFR-2 relative to DHFR (VEGFR-2)	fold antibacterial activity relative to compound 5b ([9]; strains SF, SE, MSSA, and MRSA)	MIC ([7]; ATCC10321, 72 h, read-out: MIC, CA)	MIC ([8]; ATCC16404, 72 h, read-out: MIC, AN)
COc1cc(OC)c2c(O)cc(C(=O)NCc3ccc(C)cc3)cc2c1 [5b, 4-Hydroxy-5,7-dimethoxy-N-(4-methylbenzyl)-2-naphthamide]	64 µg/mL (≈ 182 µM)	64 µg/mL (≈ 182 µM)	32 µg/mL (≈ 91.1 µM)	32 µg/mL (≈ 91.1 µM)	16 µg/mL (≈ 45.5 µM)	32 µg/mL (≈ 91.1 µM)	64 µg/mL (≈ 182 µM)	256 µg/mL (≈ 729 µM)	16 to 32 µg/mL (≈ 45.5 to 91.1 µM)	3.59 ± 1.04 µM	8.38 ± 1.14 µM	6.75 ± 1.95 µM	28.4 ± 3.7 µM	9.09 ± 0.511 µM	0.623 ± 0.056 µM	15–20 times			
COc1cc(OC)c2cc(C(=O)NCCCN3CCOCC3)cc(O)c2c1 [4a, 4-Hydroxy-6,8-dimethoxy-N-(3-morpholinopropyl)-2-naphthamide]	128 µg/mL (≈ 342 µM)	128 µg/mL (≈ 342 µM)	128 µg/mL (≈ 342 µM)	64 µg/mL (≈ 171 µM)	64 µg/mL (≈ 171 µM)	256 µg/mL (≈ 684 µM)	128 µg/mL (≈ 342 µM)	256 µg/mL (≈ 684 µM)		23.8 ± 2.93 µM	14.5 ± 2.02 µM	16.1 ± 2.42 µM	52.2 ± 4.81 µM						
COc1cc(OC)c2c(O)cc(C(=O)NCc3ccc(Cl)cc3)cc2c1 [8b, N-(4-chlorobenzyl)-4-hydroxy-5,7-dimethoxy-2-naphthamide]	16 µg/mL (≈ 43 µM)	64 µg/mL (≈ 172 µM)	16 µg/mL (≈ 43 µM)	16 µg/mL (≈ 43 µM)	8 µg/mL (≈ 21.5 µM)	16 µg/mL (≈ 43 µM)	64 µg/mL (≈ 172 µM)	256 µg/mL (≈ 689 µM)		2.97 ± 0.98 µM	7.12 ± 1.25 µM	3.58 ± 1.06 µM	12.8 ± 2.83 µM	7.88 ± 0.442 µM	0.384 ± 0.047 µM	15–20 times	more than 2 fold		
COc1ccc(CNC(=O)c2cc(O)c3c(OC)cc(OC)cc3c2)cc1 [6b, 4-Hydroxy-5,7-dimethoxy-N-(4-methoxybenzyl)-2-naphthamide]	64 µg/mL (≈ 174 µM)	128 µg/mL (≈ 348 µM)	32 µg/mL (≈ 87.1 µM)	32 µg/mL (≈ 87.1 µM)	32 µg/mL (≈ 87.1 µM)	32 µg/mL (≈ 87.1 µM)	64 µg/mL (≈ 174 µM)	256 µg/mL (≈ 697 µM)		12.3 ± 2.15 µM	14 ± 1.4 µM	13.3 ± 2.69 µM	28.5 ± 3.29 µM						
COc1ccc(CNC(=O)c2cc(O)c3cc(OC)cc(OC)c3c2)cc1 [6a, 4-Hydroxy-6,8-dimethoxy-N-(4-methoxybenzyl)-2-naphthamide]	64 µg/mL (≈ 174 µM)	64 µg/mL (≈ 174 µM)	64 µg/mL (≈ 174 µM)	64 µg/mL (≈ 174 µM)	32 µg/mL (≈ 87.1 µM)	128 µg/mL (≈ 348 µM)				14.4 ± 1.62 µM	17.4 ± 1.51 µM	15.9 ± 1.28 µM	29.2 ± 2.65 µM					256 µg/mL (≈ 697 µM)	256 µg/mL (≈ 697 µM)
O=C(O)c1cn(C2CC2)c2cc(N3CCNCC3)c(F)cc2c1=O [Cipro, ciprofloxacin, reference compound]	16 µg/mL (≈ 48.3 µM)	16 µg/mL (≈ 48.3 µM)	8 µg/mL (≈ 24.1 µM)	8 µg/mL (≈ 24.1 µM)	8 µg/mL (≈ 24.1 µM)	16 µg/mL (≈ 48.3 µM)													
CC(=O)O[C@H]1C(=O)[C@@]2(C)[C@H]([C@H](OC(=O)c3ccccc3)[C@]3(O)C[C@H](OC(=O)[C@H](O)[C@@H](NC(=O)c4ccccc4)c4ccccc4)C(C)=C1C3(C)C)[C@]1(OC(C)=O)CO[C@@H]1C[C@@H]2O [PTX, paclitaxel, reference compound]										3.96 ± 0.54 µM	5.75 ± 0.6 µM	2.85 ± 0.43 µM	7.29 ± 0.91 µM						
